The target in test [1] is T1, human FAAH (Homo sapiens, UniProt O00519).
T1 construct: The full length FAAH was subcloned into the mammalian expression vector, pcDEF.neo, using XbaI and EcoRI restriction sites; expressed in transfected cells
T1 sequence (O00519 1-579): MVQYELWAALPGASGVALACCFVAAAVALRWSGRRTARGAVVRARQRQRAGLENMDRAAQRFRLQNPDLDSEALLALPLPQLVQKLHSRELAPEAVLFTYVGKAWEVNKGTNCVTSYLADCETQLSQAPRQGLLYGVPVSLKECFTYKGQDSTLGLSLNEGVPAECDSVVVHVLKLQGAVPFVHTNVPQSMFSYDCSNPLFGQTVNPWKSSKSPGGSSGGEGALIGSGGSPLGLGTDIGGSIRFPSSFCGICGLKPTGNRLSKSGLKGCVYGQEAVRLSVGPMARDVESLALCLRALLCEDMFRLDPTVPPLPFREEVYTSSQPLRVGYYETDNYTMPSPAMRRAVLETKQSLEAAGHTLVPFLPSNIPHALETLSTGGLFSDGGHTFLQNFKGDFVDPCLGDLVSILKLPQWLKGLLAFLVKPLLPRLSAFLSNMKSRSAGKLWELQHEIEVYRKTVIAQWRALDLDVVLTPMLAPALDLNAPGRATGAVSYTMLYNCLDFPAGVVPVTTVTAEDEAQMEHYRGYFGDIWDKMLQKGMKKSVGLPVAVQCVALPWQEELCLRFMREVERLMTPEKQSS
The test can be described thus: FAAH cell lysate assay (human lysate, FAAH_CHO, AAMCA substrate). In kind it is biochemical. To be noted: lysate of CHO cells expressing human FAAH; read-out: human lysate_IC50. The text has this:
(§1) To assist in assay development stable cell lines for human, murine and rat full length FAAH were developed. Human FAAH cDNA (Accession No: NM_001441.1) was purchased from Origene (Rockville, Md.). The full length FAAH was subcloned into the mammalian expression vector, pcDEF.neo, using XbaI and EcoRI restriction sites and used for stable cell line generation.
CHO cells expressing FAAH were used to prepare either crude cell lysate or microsome fractions. To harvest cells, tissue culture media was decanted, the monolayer washed three times with Ca^++Mg^++ free PBS and cells recovered after 15 mm in enzyme free dissociation media (Millipore Corp, Billerica, Mass.). Cells were collected by centrifuging at 2000 rpm for 15 min. and the cell pellet re-suspended with 50 mM HEPES (pH 7.4) containing 1 mM EDTA and the protease inhibitors aprotinin (1 mg/ml) and leupeptin (100 μM). The suspension was sonicated at 4° C. and the cell lysate recovered after centrifuging at 12,000×g (14,600 rpm, SS34 rotor) for 20 min at 4° C. to form a crude pellet of cell debris, nuclei, peroxisomes, lysosomes, and mitochondria; the supernatant or cell lysate was used for FAAH enzyme assay. In some cases, microsomes fractions enriched in FAAH were prepared by centrifuging the cell lysate further at 27,000 rpm (100,000×g) in SW28 rotor for 50 minutes at 4° C. The pellet containing FAAH-enriched microsomes was re-suspend in 50 mM HEPES, (pH 7.4) 1 mM EDTA, and any remaining DNA sheared by passage of material through a 23 gauge needle and aliquots of enzyme were store at −80° C. prior to use.
(American Radiolabeled Chemicals; 1 mCi/ml) with FAAH (Life Sciences (1995), 56, 1999-2005 and Journal of Pharmacology and Experimented Therapeutics (1997), 283, 729-734), Analytical. Biochemistry (2003), 318:270-5. In addition, routine assays were performed monitoring hydrolysis of araehidonyl-7-amino-4-methylcoumarin amide (AAMCA) by following increase in fluorescence upon release of 7-amino 4-methyl coumarin (λEX=355 nm, (λEM=460 nm). Analytical. Biochemistry (2005). 343:143-51
(§2) Assays are performed on either cell lysate or microsome fractions prepared as described or in whole cell format employing either the fluorescent substrate AAMCA (Cayman chemical, Ann Arbor, Mich.) or ^3H-anandamide ([ETHANOLAMINE-1-3H] American Radiolabeled Chemicals; 1 mCi/ml). The cell lysate or microsome assay is performed in black PerkinElmer OptiPlates-384F by adding FAAH_CHO (whole cell (shown as human Whole cell or Human WC), cell lysate (shown as human lysate of human LY) or microsome) in assay buffer (50 mM Phosphate, pH 8.0, 1 mM EDTA, 200 mM KCl, 0.2% glycerol, 0.1% fatty acid free BSA) to each well, followed by either DMSO or compound and allowed to incubate at 22-25° C. for fifteen minutes. AAMCA substrate was used to achieve a final concentration of 1 μM and reaction allowed to proceed at room temperature for 1-3 hours. Fluorescent release as a measure of FAAH activity was monitored by reading the plate in an Envision plate Reader (Ex: 360/40 nM; Em: 460/40 nM). Whole cell assay is conducted with cells harvested after rinsing tissue culture flasks three times with Ca^++Mg^++ free PBS, incubating for 10 min in Enzyme free dissociation media and centrifuging for 5 minutes at 1,000 rpm in table top centrifuge. Cells are resuspended in assay buffer at desired cell number in (4×10^4 cells/assay in 96-well format; 1×10^4 cells/assay in 384-well format) and assayed as described.

Test [2] addresses T1, human FAAH. The test can be described thus: FAAH whole cell assay (human Whole cell, FAAH_CHO, AAMCA substrate). It is filed as cell-based. The following applies: CHO cells expressing human FAAH, whole cell format; read-out: human cell_IC50.
Description: as §1
Murine (accession number NM_010173) and Rat FAAH (accession number NM_024132) was amplified by reverse transcriptase polymerase chain reaction (RT-PCR) from brain cDNA (BD Biosciences, San Jose, Calif.) using primers 1 and 2 or primers 1 and 3 respectively (see Table). The resulting PCR product was ligated into pCR4 TOPO and DNA sequence confirmed. The full length murine FAAH was subcloned into the mammalian expression vector, pcDEFneo using either EcoRI (murine) or KpnI and EcoRI (rat) restriction sites. Chinese hamster ovary cells (CHO) were transfected following manufacturers protocol (AMAXA). Forty eight hours post transfection, cells were trypsinized and transferred to 96 well plates in Iscove's DMEM media supplemented with 2 mM Glutamine, 10% fetal calf serum, 1 mg/ml geneticin and HT Supplement (0.1 mM sodium hypoxanthine, 0.016 mM thymidine) in order to isolate single clones. Following selection in geneticin, individual clones were selected and FAAH activity was assessed using a whole cell fluorescent anandamide assay, modified from Ramarao et al (2005). Following removal of tissue culture media cells were dislodged following addition of Cellstripper (Mediatech, Inc. Manassas, Va.) and transferred to 96 well black clear bottom assay plate, centrifuged at 1,000 rpm for 3 mins and media removed and replaced with assay buffer (50 mM Tris pH8.0, 1 mM EDTA, 0.1% fatty acid free BSA). The reaction was initiated by addition of fluorescent substrate, AMC Arachidonoyl Amide (Cayman Chemical, Ann Arbor, Mich.) to 1 μM and reaction allowed to proceed for 2 hours at room temperature. Release of fluorescence was monitored in a CytoFluor Multiplate Reader. Cells expressing the highest amount of FAAH activity were selected for study with FAAH inhibitors.
as §2

pIC50: −log10 of the molar value.

For `CS(=O)(=O)c1ccc(NC(=O)c2nc(-c3ccc(F)cc3)oc2Sc2ccc(Cl)cn2)cc1` [Example A5.1, 5-[(5-chloropyridin-2-yl)sulfanyl]-2-(4-fluorophenyl)-N-[4-(methylsulfonyl)phenyl]-1,3-oxazole-4-carboxamide], the pIC50 on human FAAH [1] was 7.21; at human FAAH [2] it was 6.41.

Turning to `CS(=O)(=O)N1CCC(NC(=O)c2nc(-c3ccc(F)cc3)oc2Sc2ccc(Cl)cn2)CC1` [Example A5.2, 5-[(5-chloropyridin-2-yl)sulfanyl]-2-(4-fluorophenyl)-N-[1-(methylsulfonyl)piperidin-4-yl]-1,3-oxazole-4-carboxamide], the pIC50 was 7.24 on human FAAH [1] and 6.40 at human FAAH [2].

As to `COC(=O)c1ccc(NC(=O)c2nc(-c3ccc(F)cc3)oc2Sc2ccc(Cl)cn2)cc1` [Example A5.3, methyl 4-[({5-[(5-chloropyridin-2-yl)sulfanyl]-2-(4-fluorophenyl)-1,3-oxazol-4-yl}carbonyl)amino]benzoate], the pIC50 was 8.00 on human FAAH [1] and 7.41 on human FAAH [2].

On to `Fc1ccc(-c2nc(COc3ccc4[nH]ncc4c3)c(Sc3ccc(Cl)cn3)o2)cc1` [Example B2.1, 5-({5-[(5-chloropyridin-2-yl)sulfanyl]-2-(4-fluorophenyl)-1,3-oxazol-4-yl}methoxy)-1H-indazole], for which the pIC50 is 8.52 on human FAAH [1] and 7.70 at human FAAH [2].

Regarding `CSc1ccc(OCc2nc(-c3ccc(F)cc3)oc2Sc2ccc(Cl)cn2)cc1` [Example B2.2, 5-chloro-2-{[2-(4-fluorophenyl)-4-{[4-(methylsulfanyl)phenoxy]methyl}-1,3-oxazol-5-yl]sulfanyl}pyridine], the pIC50 at human FAAH [1] is 7.26; on human FAAH [2], 6.29.

Regarding `CS(=O)(=O)c1ccc(OCc2nc(-c3ccc(F)cc3)oc2Sc2ccc(Cl)cn2)cc1` [Example B2.3, 5-chloro-2-{[2-(4-fluorophenyl)-4-{[4-(methylsulfonyl)phenoxy]methyl}-1,3-oxazol-5-yl]sulfanyl}pyridine], the pIC50 is 7.27 on human FAAH [1] and 6.27 on human FAAH [2].

Take `Fc1ccc(-c2nc(COc3ccc4c(c3)OCO4)c(Sc3ccc(Cl)cn3)o2)cc1` [Example B2.4, 2-({4-[(1,3-benzodioxol-5-yloxy)methyl]-2-(4-fluorophenyl)-1,3-oxazol-5-yl}sulfanyl)-5-chloropyridine]: the pIC50 at human FAAH [1] was 7.62; at human FAAH [2] it was 6.65.

With `COC(=O)c1ccc(OCc2nc(-c3ccc(F)cc3)oc2Sc2ccc(Cl)cn2)cn1` [Example B2.5, methyl 5-({5-[(5-chloropyridin-2-yl)sulfanyl]-2-(4-fluorophenyl)-1,3-oxazol-4-yl}methoxy)pyridine-2-carboxylate], the pIC50 on human FAAH [1] is 7.70; at human FAAH [2], 6.84.

Regarding `N#Cc1ccc(OCc2nc(-c3ccc(F)cc3)oc2Sc2ccc(Cl)cn2)cc1` [Example B2.6, 4-({5-[(5-chloropyridin-2-yl)sulfanyl]-2-(4-fluorophenyl)-1,3-oxazol-4-yl}methoxy)benzonitrile], the figures for the pIC50 on human FAAH [1] and on human FAAH [2] were 7.33 and 6.44, respectively.

For `CC(O)c1ccc(OCc2nc(-c3ccc(F)cc3)oc2Sc2ccc(Cl)cn2)cc1` (stereo not shown) [Example B2.7, 1-[4-({5-[(5-chloropyridin-2-yl)sulfanyl]-2-(4-fluorophenyl)-1,3-oxazol-4-yl}methoxy)phenyl]ethanol], the figures for the pIC50 at human FAAH [1] and on human FAAH [2] were 7.92 and 6.70, respectively.

`OC(c1ccc(OCc2nc(-c3ccc(F)cc3)oc2Sc2ccc(Cl)cn2)cc1)C(F)(F)F` (stereo not shown) [Example B2.8, 1-[4-({5-[(5-chloropyridin-2-yl)sulfanyl]-2-(4-fluorophenyl)-1,3-oxazol-4-yl}methoxy)phenyl]-2,2,2-trifluoroethanol]: the results for the pIC50 on human FAAH [1] and at human FAAH [2] were 6.89 and 6.29, respectively.

For `COC(=O)c1ccc(OCc2nc(-c3ccc(F)cc3)oc2Sc2ccc(Cl)cn2)nc1` [Example B2.9, methyl 6-({5-[(5-chloropyridin-2-yl)sulfanyl]-2-(4-fluorophenyl)-1,3-oxazol-4-yl}methoxy)pyridine-3-carboxylate], the values for the pIC50 at human FAAH [1] and at human FAAH [2] were 8.70 and 8.00, respectively.

Take `Clc1ccc(Sc2oc(C3CCOCC3)nc2COc2ccc3[nH]ncc3c2)cc1` [Example B2.17, 5-({5-[(4-chlorophenyl)sulfanyl]-2-(tetrahydro-2H-pyran-4-yl)-1,3-oxazol-4-yl}methoxy)-1H-indazole]: the pIC50 at human FAAH [2] is 7.01.

`COC(=O)[C@H]1CC[C@@H](NCc2nc(-c3ccc(F)cc3)oc2Sc2ccc(Cl)cn2)CC1` [Example B5.11, methyl cis-4-[({5-[(5-chloropyridin-2-yl)sulfanyl]-2-(4-fluorophenyl)-1,3-oxazol-4-yl}methyl)amino] cyclohexanecarboxylate]: at human FAAH [2], the pIC50 is 7.30.

With `O[C@H]1CC[C@H](NCc2nc(C3CCOCC3)oc2Sc2ccc(Cl)cc2)CC1` [Example B5.13, trans-4-[({5-[(4-chlorophenyl)sulfanyl]-2-(tetrahydro-2H-pyran-4-yl)-1,3-oxazol-4-yl}methyl)amino] cyclohexanol], on human FAAH [2], the pIC50 was 5.55.

For `COC(=O)[C@H]1CC[C@H](NCc2nc(C3CCOCC3)oc2Sc2ccc(Cl)cc2)CC1` [Example B5.14, methyl trans-4-[({5-[(4-chlorophenyl)sulfanyl]-2-(tetrahydro-2H-pyran-4-yl)-1,3-oxazol-4-yl}methyl)amino] cyclohexanecarboxylate], on human FAAH [2], the pIC50 is 7.57.

Values taken from patent US9073879B2, “Oxazole derivatives useful as modulators of FAAH” (MERCK SHARP & DOHME CORP., priority 2010, dated 2015).
